From EP0683169A1, “8-Amino-pyrido 1,2,3-de 1,3,4 benzoxadiazine derivatives, and antibacterial agents containing them” (BAYER AG, priority 1994, dated 1995)
In brackets after ≈: the same amount, converted by molar mass.

Legend:
Experiment in all cases: MIC (MHK) by agar serial dilution on Iso-Sensitest agar
Type in all cases: cell-based
[1] = system: Klebsiella pneumoniae 8085; settings: strain 8085, ca. 10⁴ colony-forming particles per spot, 37°C, ca. 20 h, read-out: MHK-Werte
Excerpt: (§1) Die minimalen Hemmkonzentrationen (MHK) der erfindungsgemäßen Verbindungen wurden per Reihenverdünnungsverfahren auf Iso-Sensitest Agar (Oxoid) bestimmt. Für jede Prüfsubstanz wurde eine Reihe von Agarplatten hergestellt, die bei jeweils doppelter Verdünnung abfallende Konzentrationen des Wirkstoffs enthielten. Die Agarplatten wurden mit einem Multipoint-Inokulator (Denley) beimpft. Zum Beimpfen wurden Übernachtkulturen der Erreger verwandt, die zuvor so verdünnt wurden, daß jeder Impfpunkt ca. 10⁴ koloniebildende Partikel enthielt. Die beimpften Agarplatten wurden bei 37°C bebrütet, und das Keimwachstum wurde nach ca. 20 Stunden abgelesen. Der MHK-Wert (µg/ml) gibt die niedrigste Wirkstoffkonzentration an, bei der mit bloßem Auge kein Wachstum zu erkennen war.
(§2) In der nachstehenden Tabelle sind die MHK-Werte einiger der erfindungsgemäßen Verbindungen aufgeführt. Tabelle

Micrococcus luteus 9341 = settings: strain 9341, ca. 10⁴ colony-forming particles per spot, 37°C, ca. 20 h, read-out: MHK-Werte
Excerpt: as §1, §2

Acinetobacter 14068 = settings: strain 14068, ca. 10⁴ colony-forming particles per spot, 37°C, ca. 20 h, read-out: MHK-Werte
Excerpt: as §1, §2

E. coli ATCC 25922 = settings: Escherichia coli, ATCC25922, strain ATCC 25922, ca. 10⁴ colony-forming particles per spot, 37°C, ca. 20 h, read-out: MHK-Werte
Excerpt: as §1, §2

E. coli Neumann = settings: Escherichia coli, strain Neumann, ca. 10⁴ colony-forming particles per spot, 37°C, ca. 20 h, read-out: MHK-Werte
Excerpt: as §1, §2

Row | MIC [1] [µg/mL] | MIC (Micrococcus luteus 9341) [µg/mL] | MIC (Acinetobacter 14068) [µg/mL] | MIC (E. coli ATCC 25922) [µg/mL] | MIC (E. coli Neumann) [µg/mL] | Compound
1 | 0.12 (≈ 0.308 µM) | 0.015 (≈ 0.0385 µM) | 0.015 (≈ 0.0385 µM) | 0.06 (≈ 0.154 µM) | 0.06 (≈ 0.154 µM) | CN1C[C@@H]2C[C@H]1CN2c1c(F)c(N)c2c(=O)c(C(=O)O)cn3c2c1OCN3C [Beispiel 10]
2 | 0.06 (≈ 0.159 µM) | 0.015 (≈ 0.0397 µM) | 0.015 (≈ 0.0397 µM) | 0.015 (≈ 0.0397 µM) | 0.015 (≈ 0.0397 µM) | CN1CCN(c2c(F)c(N)c3c(=O)c(C(=O)O)cn4c3c2OCN4C)CC1 [Beispiel 2, 8-Amino-9-fluor-3-methyl-10-(4-methyl-1-piperazinyl)-7-oxo-2,3-dihydro-7H-pyrido[1,2,3-d,e][1,3,4]benzoxadiazin-6-carbonsäure]
3 | 0.12 (≈ 0.318 µM) | 0.015 (≈ 0.0397 µM) | 0.015 (≈ 0.0397 µM) | 0.06 (≈ 0.159 µM) | 0.06 (≈ 0.159 µM) | CC1CN(c2c(F)c(N)c3c(=O)c(C(=O)O)cn4c3c2OCN4C)CCN1 (centres unmarked) [Beispiel 3, 8-Amino-9-fluor-3-methyl-10-(3-methyl-1-piperazinyl)-7-oxo-2,3-dihydro-7H-pyrido[1,2,3-d,e][1,3,4]benzoxadiazin-6-carbonsäure]
4 | 0.25 (≈ 0.686 µM) | 0.015 (≈ 0.0412 µM) | 0.015 (≈ 0.0412 µM) | 0.03 (≈ 0.0823 µM) | 0.015 (≈ 0.0412 µM) | CN1COc2c(N3CCC(O)C3)c(F)c(N)c3c(=O)c(C(=O)O)cn1c23 (centres unmarked) [Beispiel 5, 8-Amino-9-fluor-3-methyl-10-(3-hydroxy-1-pyrrolidinyl)-7-oxo-2,3-dihydro-7H-pyrido[1,2,3-d,e][1,3,4]benzoxadiazin-6-carbonsäure]
